The results in this text go back to patent US9328138B2 (priority 2011, dated 2016).

In test [1] the target is T1, HCV genotype 1b (BK) NS3 modified enzyme with a R155K mutation (Hepatitis C virus genotype 1b, UniProt P26663, R1181K).
T1 construct: HCV genotype 1b (BK) NS3 modified enzyme
Put plainly: HCV NS3 protease time-resolved fluorescence (TRF) assay, genotype 1b R155K. Format: biochemical. Particulars: Ki 1b R155K, genotype 1b (BK) NS3 R155K; single value. The method, boiled down: (§1)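 Inhibitor titrations are mixed with NS3/NS4A in pH 7.5 HEPES buffer containing 10 mM DTT and 15% glycerol for 10 min before substrate (25 nM final) is added. After 6 h at room temperature, delayed fluorescence is read and fitted to a four-parameter curve for IC50.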

For test [2], the target named is HCV NS3 protease genotype 3a (3A-1) (Hepatitis C virus genotype 3a, UniProt Q81258). Put plainly: HCV NS3 protease time-resolved fluorescence (TRF) assay, genotype 3a. Format: biochemical. Particulars: Ki 3a. In a few lines: as §1

One may read the Ki as the dissociation constant of the complex between target and ligand, obtained from inhibition or displacement. Higher therefore signals weaker binding. In the case of `C=C[C@@H]1C[C@]1(NC(=O)[C@@H]1C[C@@H]2CN1C(=O)[C@H](C(C)(C)C)NC(=O)O[C@@H]1C[C@H]1CCCCCc1c(nc3ccccc3c1OCCCN1CCN(C)CC1)O2)C(=O)NS(=O)(=O)C1(C)CC1` [Example 131, (1aR,5S,8S,10R,22aR)-5-tert-butyl-N-[(1R,2S)-2-ethenyl-1-{[(1-methylcyclopropyl)sulfonyl]carbamoyl}cyclopropyl]-17-[3-(4-methylpiperazin-1-yl)propoxy]-3,6-dioxo-1,1a,3,4,5,6,9,10,18,19,20,21,22,22a-tetradecahydro-8H-7,10-methanocyclopropa[8,19][1,10,3,6]dioxadiazacyclononadecino[11,12-b]quinoline-8-carboxamide], the inhibition constant Ki stood at 0.11 nM in test [1] and 1.3 nM in test [2].

With `C=C[C@@H]1C[C@]1(NC(=O)[C@@H]1C[C@@H]2CN1C(=O)[C@H](C(C)(C)C)NC(=O)O[C@@H]1C[C@H]1CCCCCc1c(nc3cc(C(C)C)ccc3c1OCCN1CCOCC1)O2)C(=O)NS(=O)(=O)C1(C)CC1` [Example 132, (1aR,5S,8S,10R,22aR)-5-tert-butyl-N-[(1R,2S)-2-ethenyl-1-{[(1-methylcyclopropyl)sulfonyl]carbamoyl}cyclopropyl]-17-[2-(morpholin-4-yl)ethoxy]-3,6-dioxo-14-(propan-2-yl)-1,1a,3,4,5,6,9,10,18,19,20,21,22,22a-tetradecahydro-8H-7,10-methanocyclopropa[18,19][1,10,3,6]dioxadiazacyclononadecino[11,12-b]quinoline-8-carboxamide], the figures for the Ki in test [1] and in test [2] were 0.39 nM and 6.8 nM, respectively.

Regarding `C=C[C@@H]1C[C@]1(NC(=O)[C@@H]1C[C@@H]2CN1C(=O)[C@H](C(C)(C)C)NC(=O)O[C@@H]1C[C@H]1CCCCCc1c(nc3ccccc3c1OCCCN1CCC1)O2)C(=O)NS(=O)(=O)C1(C)CC1` [Example 133, (1aR,5S,8S,10R,22aR)-17-[3-(azetidin-1-yl)propoxy]-5-tert-butyl-N-[(1R,2S)-2-ethenyl-1-{[(1-methylcyclopropyl)sulfonyl]carbamoyl}cyclopropyl]-3,6-dioxo-1,1a,3,4,5,6,9,10,18,19,20,21,22,22a-tetradecahydro-8H-7,10-methanocyclopropa[18,19][1,10,3,6]dioxadiazacyclononadecino[11,12-b]quinoline-8-carboxamide], the figures for the Ki in test [1] and in test [2] were 0.11 nM and 1 nM, respectively.

With `C=C[C@@H]1C[C@]1(NC(=O)[C@@H]1C[C@@H]2CN1C(=O)[C@H](C(C)(C)C)NC(=O)O[C@@H]1C[C@H]1CCCCCc1c(nc3ccccc3c1OCCN1CCCCC1)O2)C(=O)NS(=O)(=O)C1(C)CC1` [Example 134, (1aR,5S,8S,10R,22aR)-5-tert-butyl-N-[(1R,2S)-2-ethenyl-1-{[(1-methylcyclopropyl)sulfonyl]carbamoyl}cyclopropyl]-3,6-dioxo-17-[2-(piperidin-1-yl)ethoxy]-1,1a,3,4,5,6,9,10,18,19,20,21,22,22a-tetradeca hydro-8H-7,10-methano cyclopropa[18,19][1,10,3,6]dioxadiazacyclo nonadecino[11,12-b]quinoline-8-carboxamide], the Ki in test [1] was 0.56 nM; in test [2], 6.1 nM.

As to `C=C[C@@H]1C[C@]1(NC(=O)[C@@H]1C[C@@H]2CN1C(=O)[C@H](C(C)(C)C)NC(=O)O[C@@H]1C[C@H]1CCCCCc1c(nc3ccccc3c1OCCN1CCCC1)O2)C(=O)NS(=O)(=O)C1(C)CC1` [Example 135], the values for the Ki in test [1] and in test [2] were 0.2 nM and 1.8 nM, respectively.

For the compound `C=C[C@@H]1C[C@]1(NC(=O)[C@@H]1C[C@@H]2CN1C(=O)[C@H](C(C)(C)C)NC(=O)O[C@@H]1C[C@H]1CCCCCc1c(nc3ccccc3c1OCCN1CC3(CCC3)C1)O2)C(=O)NS(=O)(=O)C1(C)CC1` [Example 136, (1aR,5S,8S,10R,22aR)-17-[2-(2-azaspiro[3.3]hept-2-yl)ethoxy]-5-tert-butyl-N-[(1R,2S)-2-ethenyl-1-{[(1-methylcyclopropyl)sulfonyl]carbamoyl}cyclopropyl]-3,6-dioxo-1,1a,3,4,5,6,9,10,18,19,20,21,22,22a-tetradecahydro-8H-7,10-methanocyclopropa[18,19][1,10,3,6] dioxadiazacyclononadecino [11,12-b]quinoline-8-carboxamide], the inhibition constant (Ki) in test [1] was 0.58 nM; in test [2] it was 5.1 nM.

`C=C[C@@H]1C[C@]1(NC(=O)[C@@H]1C[C@@H]2CN1C(=O)[C@H](C(C)(C)C)NC(=O)O[C@@H]1C[C@H]1CCCCCc1c(nc3ccccc3c1OC[C@H]1CCN(C(=O)OC(C)(C)C)C1)O2)C(=O)NS(=O)(=O)C1(C)CC1` [Example 137, tert-butyl (3S)-3-({[(1aR,5S,8S,10R,22aR)-5-tert-butyl-8-{[(1R,2S)-2-ethenyl-1-{[(1-methylcyclopropyl)sulfonyl]carbamoyl}cyclopropyl]carbamoyl}-3,6-dioxo-1,1a,3,4,5,6,9,10,18,19,20,21,22,22a-tetradecahydro-8H-7,10-methanocyclopropa[18,19][1,10,3,6]dioxadiazacyclononadecino[11,12-b]quinolin-17-yl]oxy}methyl)pyrrolidine-1-carboxylate]: the inhibitory constant (Ki) in test [1] was 0.14 nM; in test [2], 1.2 nM.

For the compound `C=C[C@@H]1C[C@]1(NC(=O)[C@@H]1C[C@@H]2CN1C(=O)[C@H](C(C)(C)C)NC(=O)O[C@@H]1C[C@H]1CCCCCc1c(nc3ccccc3c1OC[C@@H]1CCN(C(=O)OC(C)(C)C)C1)O2)C(=O)NS(=O)(=O)C1(C)CC1` [Example 138, tert-butyl (3R)-3-({[(1aR,5S,8S,10R, 22aR)-5-tert-butyl-8-{[(1R,2S)-2-ethenyl-1-{[(1-methylcyclopropyl)sulfonyl]carbamoyl}cyclopropyl]carbamoyl}-3,6-dioxo-1,1a,3,4,5,6,9,10,18,19,20, 21,22,22a-tetradeca hydro-8H-7,10-methanocyclopropa [18,19][1,10,3,6]dioxadiazacyclononadecino[11,12-b]quinolin-17-yl]oxy}methyl)pyrrolidine-1-carboxylate], the values for the Ki in test [1] and in test [2] were 0.63 nM and 7 nM, respectively.

Turning to `C=C[C@@H]1C[C@]1(NC(=O)[C@@H]1C[C@@H]2CN1C(=O)[C@H](C(C)(C)C)NC(=O)O[C@@H]1C[C@H]1CCCCCc1c(nc3ccccc3c1OCC1CCCN(CC)C1)O2)C(=O)NS(=O)(=O)C1(C)CC1` (stereo partly drawn) [Example 139, (1aR,5S,8S,10R,22aR)-5-tert-butyl-N-[(1R,2S)-2-ethenyl-1-{[(1-methylcyclopropyl)sulfonyl]carbamoyl}cyclopropyl]-17-[(1-ethylpiperidin-3-yl)methoxy]-3,6-dioxo-1,1a,3,4,5,6,9,10,18,19, 20,21,22,22a-tetradeca hydro-8H-7,10-methanocyclopropa[18,19] [1,10,3,6]dioxadiazacyclo nonadecino[11,12-b]quinoline-8-carboxamide], the inhibitory constant (Ki) in test [1] was found to be 0.1 nM; in test [2] it was 0.38 nM.

With `C=C[C@@H]1C[C@]1(NC(=O)[C@@H]1C[C@@H]2CN1C(=O)[C@H](C(C)(C)C)NC(=O)O[C@@H]1C[C@H]1CCCCCc1c(nc3ccccc3c1OCC1CN(C)CCN1C)O2)C(=O)NS(=O)(=O)C1(C)CC1` (stereo partly drawn) [Example 140, (1ar,5S,8S,10R,22aR)-5-tert-butyl-17-[(1,4-dimethylpiperazin-2-yl)methoxy]-N-[(1R,2S)-2-ethenyl-1-{[(1-methylcyclopropyl)sulfonyl]carbamoyl}cyclopropyl]-3,6-dioxo-1,1a,3,4,5,6,9,10,18,19,20,21,22,22a-tetradecahydro-8H-7,10-methanocyclopropa[18,19][1,10,3,6] dioxadiazacyclononadecino [11,12-b]quinoline-8-carboxamide], the Ki in test [1] came out at 0.26 nM; in test [2] it was 3 nM.

Regarding `C=C[C@@H]1C[C@]1(NC(=O)[C@@H]1C[C@@H]2CN1C(=O)[C@H](C(C)(C)C)NC(=O)O[C@@H]1C[C@H]1CCCCCc1c(nc3ccccc3c1OCC1CCN(C)C1)O2)C(=O)NS(=O)(=O)C1(C)CC1` (stereo partly drawn) [Example 141, (1aR,5S,8S,10R,22aR)-5-tert-butyl-N-[(1R,2S)-2-ethenyl-1-{[(1-methylcyclopropyl)sulfonyl]carbamoyl}cyclopropyl]-17-[(1-methylpyrrolidin-3-yl)methoxy]-3,6-dioxo-1,1a,3,4,5,6,9,10,18,19,20,21,22,22a-tetradecahydro-8H-7,10-methanocyclopropa[18,19][1,10,3,6] dioxadiazacyclononadecino [11,12-b]quinoline-8-carboxamide], the Ki in test [1] was 0.066 nM; in test [2], 0.33 nM.

As for `C=C[C@@H]1C[C@]1(NC(=O)[C@@H]1C[C@@H]2CN1C(=O)[C@H](C(C)(C)C)NC(=O)O[C@@H]1C[C@H]1CCCCCc1c(nc3ccccc3c1OCC1CN(C(=O)OC(C)(C)C)C1)O2)C(=O)NS(=O)(=O)C1(C)CC1` [Example 142, tert-butyl 3-({[(1aR,5S,8S,10R, 22aR)-5-tert-butyl-8-{[(1R,2S)-2-ethenyl-1-{[(1-methylcyclopropyl)sulfonyl]carbamoyl}cyclopropyl]carbamoyl}-3,6-dioxo-1,1a,3,4,5,6,9,10,18,19,20,21,22,22a-tetradeca hydro-8H-7,10-methanocyclopropa[18,19][1,10,3,6]dioxadiazacyclononadecino [11,12-b]quinolin-17-yl]oxy}methyl) azetidine-1-carboxylate], the Ki in test [1] was found to be 0.7 nM; in test [2], 15 nM.
